# Experimental data: patent publication US20240423937A1, “METHODS OF TREATING PAIN AND USES THEREOF” (University of Tennessee Research Foundation, priority 2021, published 2024)
# “Also recorded” adds a separate entry of the source. Like-named read-outs stand apart in the source and are kept apart here.
# Assays:
# [1] = tested on: Dutch belted rabbits; test: Single topical dose IOP lowering in Dutch belted rabbits; assay type: in vivo, rabbit; conditions: single drop
# Protocol: Non-limiting exemplary data: We made a discovery that can make PRG effective in treating vision loss in glaucoma. In addition to its presence in the anterior segment (FIG. 2), CACNA2D1 is also localized to RGCs (FIGS. 3A&B), as well as the ON (FIG. 3C). […] At 24 hours after dosing, IOP is still reduced by >20%.
# Moreover, the combined effect of all three layers of our W/O/W ME is critical for enhancing the efficacy of PRG. […] Using this same model, we will evaluate our optimized formulations from Test 1.1.
# Research Design and Methods: Dutch belted rabbits (Envigo Rabbitry; formerly Covance) will be used in this single-dose design study. Rabbits from this rabbitry can have higher baseline IOP values than those purchased from other rabbitries. Rabbits (equally balanced between males and females) will be acclimated to handling and IOP measurements for at least seven days before initiation of the study. Slit-lamp biomicroscopic and fundoscopic examinations will be performed before and after the study. Our top three formulations from Test 1.1 will be tested in this model using our methods^12. The IOP of both eyes will be measured using a rebound tonometer (Tono-Pen AVIA Vet, Reichert) immediately before the formulation application (baseline, 8 am) and at hourly time intervals after application until the IOP returns to baseline. Using a sterile micropipette tip, thirty microliters of the formulation containing PRG ME or blank control will be instilled topically into one eye of each rabbit, while the fellow eye will receive the formulation vehicle, and therefore serve as controls. Rabbits will be dosed daily at 8 am for 21 days, and IOP collected at 8 am (immediately pre-dosing) and at the time at which the maximum IOP reduction is measured (Tmax) using our methods^12. Curves similar to FIG. 16 will be generated. Biocompatibility of the antioxidant-containing formulations will be assessed using with slit lamp biomicroscopy as in FIG. 17. […]
# [2] = Topical pregabalin IOP lowering, aqueous / without microemulsion; assay type: in vivo
# Description: As a bidirectional component of our study, we corroborated an imputed single-nucleotide polymorphism (SNP) in CACNA2D1 within a human POAG population. Immunohistochemistry studies in humans, rabbits, and mice indicate that CACNA2D1 is located in the ciliary body (CB) and outflow structures (FIG. 2), both of which can influence IOP. […] These findings are consistent with earlier findings that implicated Ca^2+ flux as a regulator of IOP through actions in both the CB and outflow structures^13,14. This is highly significant because few approved IOP-lowering drugs act on both the inflow and outflow facilities, and that we can be able to clarify the implicated but yet unproven role of Ca^2+ flux on inflow and outflow control. On the therapeutic side, because the amplitude and duration of PRG-mediated IOP reduction in our studies were limited (17% IOP reduction that returns to baseline at 6 hr)^15, we then engineered a new topical extended release microemulsion (ME) formulation to increase PRG efficacy and duration of action^12. […] These findings indicate the development of PRG as a new class of glaucoma therapeutics with a MOA distinct from current approved IOP-lowering medications.
# However, the amplitude and duration of response were limited and unpractical for clinical use. To increase the efficacy of PRG as an IOP-lowering drug, we engineered a new microemulsion topical formulation^12. Our formulation was designed as a water-in-oil-in water microemulsion with 40% and 60% of the PRG in the innermost and outermost aqueous phases, respectively. Compartmentalization of PRG in two aqueous phases supports both a rapid onset and long duration of IOP-lowering action. Drug release from the outermost aqueous phase is fast, allowing for rapid IOP reduction. To be released from the innermost aqueous phase, however, PRG must pass through two interfaces—the inner water/oil interface and the outer oil/water interface—after which it must diffuse through the viscous polymer solution that constitutes the outmost aqueous phase of our multilayered ME (FIG. 12). Collectively the movement across both interfaces slows movement of PRG from our formulation and supports the extended IOP-lowering effect. After diffusion from the outermost polymer, PRG is available for absorption through the cornea. To ensure that the formulation will remain on the corneal surface for enough time to allow for the sustained release of the drug, the outermost hydrogel layer is prepared from Carbopol 981, which has excellent bio-adhesive properties.
# [3] = tested on: BXD29 mice; test: Daily topical dosing of BXD29 mice for 6 weeks (IOP, optic nerve axons); assay type: in vivo, mouse
# Description: Objective: An obstacle in this study is the in vivo assessment of any direct neuroprotective effects of PRG that are independent of IOP lowering. […] These characteristics make BXD29 ideal for evaluating the direct neuroprotective properties of PRG on RGCs by eliminating indirect effects that would be mediated through IOP reduction.
# We have evidence to show, without wishing to be bound by theory, that topical dosing with our PRG ME is neuroprotective to RGC axons in the ON. We dosed BXD29 mice daily with PRG ME beginning at 5 weeks of age (FIG. 9A) before ON degeneration was marked. […] In contrast, ON from mice dosed with unmedicated ME had loss of axon profiles and increased areas of debris (FIG. 9C). The studies will evaluate the role of PRG as a RGC neuroprotectant and define its cellular mechanism of action.
# [4] = not told; cited from earlier work
# [5] = target: CACNA2D1 (Homo sapiens, UniProt P54289); conditions: cited from earlier work
# [6] = target: CACNA2D2 (Homo sapiens, UniProt Q9NY47); conditions: cited from earlier work
# [7] = tested on: γ-aminobutyric acid (GABA) receptors; conditions: cited from earlier work
# [8] = topical aqueous / initial PRG formulation
# [9] = with versus without the microemulsion, species not stated
# Chain of CACNA2D1 (P54289 25-1103): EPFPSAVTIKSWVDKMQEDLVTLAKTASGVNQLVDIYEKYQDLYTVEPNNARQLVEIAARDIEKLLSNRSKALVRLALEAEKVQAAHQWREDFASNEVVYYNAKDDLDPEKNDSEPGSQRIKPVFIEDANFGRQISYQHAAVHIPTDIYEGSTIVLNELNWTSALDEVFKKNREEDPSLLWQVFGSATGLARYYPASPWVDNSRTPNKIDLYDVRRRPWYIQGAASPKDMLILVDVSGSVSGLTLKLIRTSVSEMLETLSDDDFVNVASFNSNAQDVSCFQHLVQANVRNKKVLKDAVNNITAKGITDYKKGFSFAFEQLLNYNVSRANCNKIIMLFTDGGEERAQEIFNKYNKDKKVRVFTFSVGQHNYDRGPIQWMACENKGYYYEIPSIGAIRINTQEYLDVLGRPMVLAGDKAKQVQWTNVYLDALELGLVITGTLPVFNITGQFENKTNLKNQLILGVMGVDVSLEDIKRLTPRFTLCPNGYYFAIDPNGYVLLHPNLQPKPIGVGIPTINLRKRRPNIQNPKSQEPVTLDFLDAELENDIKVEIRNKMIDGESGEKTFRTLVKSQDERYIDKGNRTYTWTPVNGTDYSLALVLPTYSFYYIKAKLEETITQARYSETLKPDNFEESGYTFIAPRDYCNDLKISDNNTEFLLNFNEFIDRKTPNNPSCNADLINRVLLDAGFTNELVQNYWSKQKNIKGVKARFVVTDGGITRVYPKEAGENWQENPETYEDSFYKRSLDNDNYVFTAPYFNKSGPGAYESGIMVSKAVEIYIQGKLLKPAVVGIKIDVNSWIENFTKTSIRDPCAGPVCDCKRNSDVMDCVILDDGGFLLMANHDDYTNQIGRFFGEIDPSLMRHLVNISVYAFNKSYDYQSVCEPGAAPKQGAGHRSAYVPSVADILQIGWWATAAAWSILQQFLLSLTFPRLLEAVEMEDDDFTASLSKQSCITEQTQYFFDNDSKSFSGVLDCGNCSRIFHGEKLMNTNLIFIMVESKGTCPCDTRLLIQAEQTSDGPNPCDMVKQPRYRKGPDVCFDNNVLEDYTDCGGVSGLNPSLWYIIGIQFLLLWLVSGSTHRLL
# Chain of CACNA2D2 (Q9NY47 19-1150, species assumed): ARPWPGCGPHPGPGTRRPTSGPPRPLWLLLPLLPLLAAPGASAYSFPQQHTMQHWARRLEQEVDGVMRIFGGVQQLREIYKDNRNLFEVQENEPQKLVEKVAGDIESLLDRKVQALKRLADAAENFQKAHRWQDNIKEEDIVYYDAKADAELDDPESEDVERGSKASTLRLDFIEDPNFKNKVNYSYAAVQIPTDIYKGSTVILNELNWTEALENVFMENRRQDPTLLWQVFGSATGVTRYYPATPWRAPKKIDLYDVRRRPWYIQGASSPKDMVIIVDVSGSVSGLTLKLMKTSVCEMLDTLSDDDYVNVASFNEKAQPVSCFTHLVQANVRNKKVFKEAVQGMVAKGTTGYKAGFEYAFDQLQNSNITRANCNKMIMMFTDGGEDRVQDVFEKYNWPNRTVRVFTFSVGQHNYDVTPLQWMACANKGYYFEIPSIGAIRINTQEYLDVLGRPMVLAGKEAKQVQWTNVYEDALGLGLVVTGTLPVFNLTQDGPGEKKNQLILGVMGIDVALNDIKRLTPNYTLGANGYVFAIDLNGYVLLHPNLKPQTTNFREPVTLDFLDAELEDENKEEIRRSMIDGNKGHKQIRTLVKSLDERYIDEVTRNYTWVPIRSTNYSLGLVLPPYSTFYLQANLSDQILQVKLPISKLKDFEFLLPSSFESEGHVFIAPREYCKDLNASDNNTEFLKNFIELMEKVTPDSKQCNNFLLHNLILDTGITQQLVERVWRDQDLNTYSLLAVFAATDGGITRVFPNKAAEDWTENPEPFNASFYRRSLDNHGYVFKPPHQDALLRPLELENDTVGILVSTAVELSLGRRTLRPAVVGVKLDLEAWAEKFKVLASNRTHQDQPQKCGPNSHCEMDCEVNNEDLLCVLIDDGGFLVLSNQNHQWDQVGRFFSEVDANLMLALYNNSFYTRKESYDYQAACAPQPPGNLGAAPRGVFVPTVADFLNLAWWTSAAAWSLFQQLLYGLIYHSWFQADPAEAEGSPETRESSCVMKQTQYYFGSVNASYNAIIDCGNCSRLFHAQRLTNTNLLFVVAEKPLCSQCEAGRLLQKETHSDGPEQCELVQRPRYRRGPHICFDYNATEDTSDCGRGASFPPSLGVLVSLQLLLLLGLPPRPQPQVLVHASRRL
smiles,measurement,setting,value
CC(C)C[C@H](CN)CC(=O)O [pregabalin],AUC of IOP reduction,[1],38 mmHg·hr
same,maximal % reduction in IOP,[1],30%
same,time at which IOP returns to baseline,[1],10 h
same,IOP reduction,[2]; [8],17%
same,return of IOP to baseline after dosing,[2]; [8],6 h
same,dose dependence of IOP lowering,[2]; topical dosing,dose dependent manner
same,IOP lowering,[2]; [9],about 20%
same,return of IOP to baseline after dosing,[2]; [9],8 to 10 h
same,optic nerve axon preservation,[3]; daily topical dosing for 6 weeks from 5 weeks of age,prevents degeneration of axons in the ON even in the absence of a reduction in IOP
same,IOP response of BXD29 mice,"[3]; topical, up to 6 weeks of daily dosing",unresponsive
same,membrane permeability,[4],high membrane permeability
same,affinity / specificity for CACNA2D1,[5],antagonist with specificity for CACNA2D1 and high specificity for CACNA2D1 and bind
same,affinity / specificity for CACNA2D1,[5]; listed as PRG,high affinity and specificity; also recorded: binds with high affinity
same,affinity / specificity for CACNA2D1,[5]; listed as Pregabalin,high affinity and specificity
same,binding to CACNA2D2,[6],bind
same,binding to GABA receptors,[7],does not bind
